According to patent US5440016A, “Peptides of the formula (KFmoc) ZZZ and their uses” (priority 1993, dated 1995):
Converted amounts (≈) assume the structure as drawn. Where two headings read alike, the source gives them in different places. Square brackets hold non-standard residues; d marks the D form. Ends that are not written are not given here. Peptide text beside a SMILES is read from it. * marks the point of attachment. Fmoc = O=C(OCC1c2ccccc2-c2ccccc21)*

How the values were obtained:
[1] = system: Human red blood cells (RBCs); experiment: Hemolytic activity; format: cell-based; details: for % hemolysis at 100 μg/ml: Tables 22-23
[2] = system: Escherichia coli ATCC 25922; details: for IC50 (μg/ml) against E. coli: Tables 22-23
Procedure: (§1) Escherichia coli ATCC 25922 and P. aeruginosa ATCC 27853 were used as Gram-negative (-) and Staphylococcus aureus ATCC 29213 as Gram-positive (+) bacteria. Bacteria were grown overnight at 37° C. in Mueller-Hinton (MH) broth. This culture was reinoculated and incubated at 37° C. to reach the exponential phase of bacteria growth, i.e., a final bacterial suspension containing 10^5 to 5×10^5 colony-forming units (CFU)/ml. The concentration of cells was established by plating 100 μl of different dilutions of the culture solution (e.g., 10^-2, 10^-3 and 10^-4) onto solid agar plates.
(§2) Following an overnight incubation at 37° C., the CFU thus formed were counted on each agar plate. In 96-well tissue culture plates, as control blanks, eight wells per plate contained only medium, while as a positive growth control, eight other wells contained medium plus cells.
(§3) The plates were incubated overnight at 37° C., and the optical density (OD) determined at 620 nm after different times of incubation.

[3] = system: Staphylococcus aureus ATCC 29213; details: for IC50 (μg/ml) against S. aureus: Tables 22-23
Procedure: as §1, §2, §3

[4] = system: Streptococcus sanguis ATCC 10556; details: for IC50 (μg/ml) against S. sanguis: Tables 22-23
Procedure: Streptococcus sanguis ATCC 10556 (Gram-positive (+) bacteria present in tooth crevices) was grown overnight at 37° C. in Brain Heart Infusion (BHI) broth. This culture was reinoculated and incubated at 37° C. to reach the exponential phase of bacteria growth, i.e., a final bacterial suspension containing 10^5 to 5×10^5 colony-forming units (CFU)/ml. The concentration of cells was established by plating 100 μl of different dilutions of the culture solution (e.g., 10^-2, 10^-4) and 10^-4) onto solid agar plates. Following an overnight incubation at 37° C., the CFU thus formed were counted on each agar plate. In 96-well tissue culture plates, as control blanks, eight wells per plate contained only medium, while as a positive growth control, eight other wells contained medium plus cells. […] The plates were incubated overnight at 37° C., and the optical density (OD) determined at 620 nm after 20 to 24 hours incubation.

[5] = system: Candida albicans ATCC 10231; details: for IC50 (μg/ml) against C. albicans: Tables 22-23
P. aeruginosa ATCC 27853 = experiment: Antimicrobial assay, P. aeruginosa; details: Tables 22-23
Procedure: as §1, §2, §3

[6] = Tables 2-5, concentration necessary to inhibit 50% growth
[7] = Tables 3-5, lower parts (unnatural amino acids)
[8] = Tables 7-9, lower parts (unnatural amino acids)
[9] = Tables 11-13, lower parts (unnatural amino acids)
[10] = Tables 15-17, lower parts (unnatural amino acids)

| Molecule | % hemolysis at 100 μg/ml [1] [%] | IC50 (μg/ml) against E. coli [2] [µg/mL] | IC50 (μg/ml) against S. aureus [3] [µg/mL] | IC50 (μg/ml) against S. sanguis [4] [µg/mL] | IC50 (μg/ml) against C. albicans [5] [µg/mL] | IC50 (μg/ml) against P. aeruginosa (P. aeruginosa ATCC 27853) [µg/mL] | further results |
| --- | --- | --- | --- | --- | --- | --- | --- |
| Ac-RRWWCY-NH2 [Ac-RRWWCY-NH2] | 5.8 | 20 to 21 | 12 to 28 | 59 to 60 | 184 to 212 | 97 to 110 | – |
| Ac-RRWWCI-NH2 [Ac-RRWWCI-NH2] | 8.3 | 29 to 33 | 12 to 18 | 17 to 18 | 93 to 102 | 40 to 70 | – |
| Ac-RRWWCE-NH2 [Ac-RRWWCE-NH2] | 0.0 | > 125 | > 125 | > 500 | 842 to 874 | 149 | – |
| Ac-RRWWCN-NH2 [Ac-RRWWCN-NH2] | 0.1 | 40 to 55 | 98 to 125 | 230 | 222 to 227 | 120 | – |
| Ac-RRWWCL-NH2 [Ac-RRWWCL-NH2] | 5.0 | 19 to 22 | – | 18 to 21 | 65 to 95 | 46 to 54 | – |
| Ac-RRWWCK-NH2 [Ac-RRWWCK-NH2] | 0.5 | 17 to 21 | 17 to 18 | 38 to 42 | 100 to 110 | 150 | – |
| Ac-RRWWCF-NH2 [Ac-RRWWCF-NH2] | 3.3 | 20 to 21 | 10 to 14 | 14 to 22 | 70 to 97 | 42 to 45 | – |
| Cecropin A (KWKLFKKIEKVGQNIRDGIIKAGPAVAVVGQATQIAK; ends and bridges not checked; UniProt P01507 27-63, looked up) [reference compound] | 0.0 | 1 to 2 | > 500 | 337 to 400 | 81 to 88 | 5 to 6 | – |
| CC(=O)N[C@@H](CCCNC(=N)N)C(=O)N[C@@H](CCCNC(=N)N)C(=O)N[C@@H](Cc1c[nH]c2ccccc12)C(=O)N[C@@H](Cc1c[nH]c2ccccc12)C(=O)N[C@@H](CS)C(=O)N[C@@H](CS)C(N)=O [Ac-RRWWCC-NH2] (Ac-RRWWCC-NH2) | 9.5 | 54 to 68 | 47 to 63 | 92 to 94 | 162 to 166 | 86 to 88 | – |
| CC(=O)N[C@H](CCCNC(=N)N)C(=O)N[C@H](CCCNC(=N)N)C(=O)N[C@H](Cc1c[nH]c2ccccc12)C(=O)N[C@H](Cc1c[nH]c2ccccc12)C(=O)N[C@H](CS)C(=O)N[C@@H](C(N)=O)C(C)C [Ac-rrwwcv-NH2] (Ac-[dR][dR][dW][dW][dC][dV]-NH2) | 10.0 | 9 to 10 | 16 to 19 | 7 to 8 | 107 to 119 | 58 to 88 | – |
| Ac-RRWWCS-NH2 [Ac-RRWWCS-NH2] | 1.8 | 20 to 21 | 41 to 44 | 54 to 59 | 211 to 213 | 290 | – |
| Ac-RRWWCR-NH2 [Ac-RRWWCR-NH2] | 0.0 | 12 to 18 | 11 to 12 | 22 to 45 | 100 to 101 | 87 to 130 | – |
| Ac-RRWWCM-NH2 [Ac-RRWWCM-NH2] | 15 | 23 to 27 | 13 to 20 | 13 to 22 | 96 to 112 | 93 to 103 | – |
| Ac-RRWWCW-NH2 [Ac-RRWWCW-NH2] | 14 | 58 to 61 | 41 to 43 | 55 to 78 | 151 to 166 | 60 to 88 | – |
| C[C@@H](NC(=O)[C@H](CCCCN)NC(=O)[C@H](Cc1c[nH]c2ccccc12)NC(=O)[C@H](CCCCN)NC(=O)OCC1c2ccccc2-c2ccccc21)C(N)=O [(KFmoc)WKa-NH2] (Fmoc-KWK[dA]-NH2) | – | – | – | – | – | – | HD50 (concentration necessary to lyse 50% of the cells) ([1]; Tables 18-21): 437 µg/mL; IC50 against E. coli [2, 6]: 60 µg/mL (≈ 79.7 µM); IC50 against S. aureus ([3]; Tables 6-9): 7 µg/mL (≈ 9.3 µM); IC50 against S. sanguis ([4]; Tables 10-13): 8 µg/mL (≈ 10.6 µM); IC50 against C. albicans ([5]; Tables 14-17): 200 µg/mL (≈ 266 µM) |
| (KFmoc)ci(dOrn)-NH2 | – | – | – | – | – | – | HD50 (concentration necessary to lyse 50% of the cells) ([1]; Tables 18-21): 77 µg/mL; IC50 against E. coli [2, 7]: 20 μg/m; IC50 against S. aureus [3, 8]: 4 μg/m; IC50 against S. sanguis [4, 9]: 2 μg/m; IC50 against C. albicans [5, 10]: 121 μg/m |
| NCCCC[C@H](NC(=O)OCC1c2ccccc2-c2ccccc21)C(=O)N[C@@H](Cc1c[nH]c2ccccc12)C(=O)N[C@@H](CCCCN)C(=O)N[C@H](CS)C(N)=O [(KFmoc)WKc-NH2] (Fmoc-KWK[dC]-NH2) | – | – | – | – | – | – | HD50 (concentration necessary to lyse 50% of the cells) ([1]; Tables 18-21): 25 µg/mL; IC50 against E. coli [2, 6]: 23 µg/mL (≈ 29.3 µM); IC50 against S. aureus ([3]; Tables 6-9): 4 µg/mL (≈ 5.1 µM); IC50 against S. sanguis ([4]; Tables 10-13): 4 µg/mL (≈ 5.1 µM); IC50 against C. albicans ([5]; Tables 14-17): 243 µg/mL (≈ 310 µM) |
| (KFmoc)WY(dOrn)-NH2 | – | – | – | – | – | – | HD50 (concentration necessary to lyse 50% of the cells) ([1]; Tables 18-21): 67 µg/mL; IC50 against E. coli [2, 7]: 35 μg/m; IC50 against S. aureus [3, 8]: 5 μg/m; IC50 against S. sanguis [4, 9]: 7 μg/m; IC50 against C. albicans [5, 10]: 359 μg/m |
| MagaininII-NH2 [reference compound] | – | 72 to 98 | 32 to 64 | 143 to 235 | 41 to 42 | 150 to 200 | – |
| (KFmoc)ci(KCBZ)-NH2 | – | – | – | – | – | – | HD50 (concentration necessary to lyse 50% of the cells) ([1]; Tables 18-21): 53 µg/mL; IC50 against E. coli [2, 7]: 15 μg/m; IC50 against S. aureus [3, 8]: 5 μg/m; IC50 against S. sanguis [4, 9]: 3 μg/m; IC50 against C. albicans [5, 10]: 78 μg/m |
| (KFmoc)Wf(aABA)-NH2 | – | – | – | – | – | – | HD50 (concentration necessary to lyse 50% of the cells) ([1]; Table 20, lower part): 241 μg/m; IC50 against E. coli [2, 7]: 21 μg/m; IC50 against S. aureus [3, 8]: 6 μg/m; IC50 against S. sanguis [4, 9]: 7 μg/m; IC50 against C. albicans [5, 10]: 72 μg/m |
| (KFmoc)ci(Hyp)-NH2 | – | – | – | – | – | – | HD50 (concentration necessary to lyse 50% of the cells) ([1]; Tables 18-21): 39 µg/mL; IC50 against E. coli [2, 7]: 52 μg/m; IC50 against S. aureus [3, 8]: 8 μg/m; IC50 against S. sanguis [4, 9]: 8 μg/m; IC50 against C. albicans [5, 10]: 205 μg/m |
| (KFmoc)Wf(KCBZ)-NH2 | – | – | – | – | – | – | HD50 (concentration necessary to lyse 50% of the cells) ([1]; Table 20, lower part): 52 μg/m; IC50 against E. coli [2, 7]: 28 μg/m; IC50 against S. aureus [3, 8]: 3 μg/m; IC50 against S. sanguis [4, 9]: 4 μg/m; IC50 against C. albicans [5, 10]: 58 μg/m |
| C[C@H](O)[C@@H](NC(=O)[C@H](Cc1ccc(O)cc1)NC(=O)[C@H](Cc1c[nH]c2ccccc12)NC(=O)[C@H](CCCCN)NC(=O)OCC1c2ccccc2-c2ccccc21)C(N)=O [(KFmoc)WYt-NH2] (Fmoc-KWY[dT]-NH2) | – | – | – | – | – | – | HD50 (concentration necessary to lyse 50% of the cells) ([1]; Tables 18-21): 37 µg/mL; IC50 against E. coli [2, 6]: 81 µg/mL (≈ 99 µM); IC50 against S. aureus ([3]; Tables 6-9): 9 µg/mL (≈ 11 µM); IC50 against S. sanguis ([4]; Tables 10-13): 8 µg/mL (≈ 9.78 µM); IC50 against C. albicans ([5]; Tables 14-17): 161 µg/mL (≈ 197 µM) |
